These results are taken from patent US12251387B2, “Substituted quinoxalines and benzo[c][1,2,5]oxadiazoles as DNA-PK inhibitors” (Vertex Pharmaceuticals Incorporated, priority 2013, dated 2025).

In the assay the target is DNA-PK (Homo sapiens, UniProt P78527). As to the kind of experiment: DNA-PK Inhibition Assay (standard radiometric kinase assay, 33P-ATP, peptide substrate). In kind it is biochemical. To be noted: radiometric assay, approximately 6 nM DNA-PK, 100 μM ATP, 45 min; fit to competitive tight-binding inhibition; read-out: Ki for the inhibition of DNA-PK. In short, it runs like this:
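Radiometric transfer of 33P from ATP (100 μM) to peptide substrate (0.8 mg/mL) by about 6 nM DNA-PK with 10 μg/mL sheared dsDNA, pH 7.5 HEPES/MgCl2, 45 min, phosphoric acid quench, filter capture and scintillation counting. Ki fitted to a competitive tight-binding inhibition model.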

By Ki is commonly meant the equilibrium dissociation constant of an inhibitor or competing ligand from its target. On to `CN1CCN(c2cnc(N[C@H]3CC[C@@H](Oc4cc(N5CCOCC5)cc5nccnc45)CC3)nc2)CC1` [Compound 579], for which the Ki was below 100 nM.

Consider `Clc1nc(N[C@H]2CC[C@@H](Oc3cc(N4CCOCC4)cc4nccnc34)CC2)c2[nH]ccc2n1` [Compound 513], for which the Ki was below 100 nM.

For `CCSc1nc(C)cc(N[C@H]2CC[C@@H](Oc3cc(N4CCOCC4)cc4nccnc34)CC2)n1` [Compound 635], the Ki was below 100 nM.

For `CN1CCN(c2nccc(N[C@H]3CC[C@@H](Oc4cc(N5CCOCC5)cc5nccnc45)CC3)n2)CC1` [Compound 535], the Ki is below 100 nM.

For `FC(F)(F)c1cccnc1N[C@H]1CC[C@@H](Oc2cc(N3CCOCC3)cc3nccnc23)CC1` [Compound 593], the Ki was below 100 nM.

As for `FC(F)(F)c1cc(N[C@H]2CC[C@@H](Oc3cc(N4CCOCC4)cc4nccnc34)CC2)ncn1` [Compound 417], the inhibition constant Ki is below 100 nM.

As for `COc1ccc(N[C@H]2CC[C@@H](Oc3cc(N4CCOCC4)cc4nccnc34)CC2)nc1OC` [Compound 583], the Ki was below 100 nM.

As for `c1cnc2c(O[C@H]3CC[C@@H](Nc4ncnc5cc[nH]c45)CC3)cc(N3CCOCC3)cc2n1` [Compound 517], the Ki was below 100 nM.

With `c1cnc2c(O[C@H]3CC[C@@H](Nc4ncnc5ccoc45)CC3)cc(N3CCOCC3)cc2n1` [Compound 488], the Ki is below 100 nM.

In the case of `c1cnc2c(O[C@H]3CC[C@@H](Nc4ncc5c(n4)OCC5)CC3)cc(N3CCOCC3)cc2n1` [Compound 621], the Ki was below 100 nM.

Take `CC(C)(O)c1ccnc(N[C@H]2CC[C@@H](Oc3cc(N4CCOCC4)cc4nccnc34)CC2)c1` [Compound 573]: the Ki is below 100 nM.

For the compound `CC(C)(C)NC(=O)N[C@H]1CC[C@@H](Oc2cc(N3CCOCC3)cc3nccnc23)CC1` [Compound 425], the inhibition constant Ki is below 100 nM.

Consider `Cc1nccc(N[C@H]2CC[C@@H](Oc3cc(N4CCO[C@H](CO)C4)cc4nccnc34)CC2)n1` [Compound 320], for which the Ki was below 100 nM.

`CNC(=O)c1cc(N[C@H]2CC[C@@H](Oc3cc(C4=CCOCC4)cc4nccnc34)CC2)ncn1` [Compound 321]: the Ki is below 100 nM.

As to `Cc1nccnc1N[C@H]1CC[C@@H](Oc2cc(N3CCOCC3)cc3nccnc23)CC1` [Compound 335], the Ki is below 100 nM.

As for `Cc1ccc(N[C@H]2CC[C@@H](Oc3cc(N4CCOCC4)cc4nccnc34)CC2)cn1` [Compound 444], the Ki is below 100 nM.

On to `COCCOc1cc(N[C@H]2CC[C@@H](Oc3cc(N4CCOCC4)cc4nccnc34)CC2)ncn1` [Compound 539], for which the Ki is below 100 nM.

Regarding `c1cc(N[C@H]2CC[C@@H](Oc3cc(N4CCOCC4)cc4nccnc34)CC2)nc(N2CCOCC2)n1` [Compound 534], the Ki is below 100 nM.

As to `c1cnc(NC[C@H]2C[C@@H](Oc3cc(N4CCOCC4)cc4nccnc34)C2)nc1` [Compound 307], the Ki is below 100 nM.

On to `Cc1nc2c(c(N[C@H]3CC[C@@H](Oc4cc(N5CCOCC5)cc5nccnc45)CC3)n1)COC2` [Compound 452], for which the inhibitory constant (Ki) was below 100 nM.

Turning to `c1cc(-c2cnc(N[C@H]3CC[C@@H](Oc4cc(N5CCOCC5)cc5nccnc45)CC3)nc2)[nH]n1` [Compound 462], the Ki is below 100 nM.

With `Cc1cnc(N[C@H]2CC[C@@H](Oc3cc(N4CCOCC4)cc4nccnc34)CC2)nc1C` [Compound 467], the Ki was below 100 nM.

With `COc1cc(N[C@H]2CC[C@@H](Oc3cc(N4CCOCC4)cc4nccnc34)CC2)nc(C)n1` [Compound 659], the Ki is below 100 nM.

For the compound `COc1ncc(N[C@H]2CC[C@@H](Oc3cc(N4CCOCC4)cc4nccnc34)CC2)cn1` [Compound 574], the Ki was below 100 nM.

In the case of `O=C1Cc2c(ncnc2N[C@H]2CC[C@@H](Oc3cc(N4CCOCC4)cc4nccnc34)CC2)N1` [Compound 502], the Ki is below 100 nM.

In the case of `Cc1nc(N[C@H]2CC[C@@H](Oc3cc(N4CCOCC4)cc4nccnc34)CC2)cc(N(C)C)n1` [Compound 602], the Ki is below 100 nM.

`COCc1ccnc(N[C@H]2CC[C@@H](Oc3cc(N4CCOCC4)cc4nccnc34)CC2)c1` [Compound 582]: the Ki is below 100 nM.

Consider `CN1CCC(c2cnc(N[C@H]3CC[C@@H](Oc4cc(N5CCOCC5)cc5nccnc45)CC3)nc2)C1` (stereo partly shown) [Compound 568], for which the Ki is below 100 nM.

On to `c1cc2c(c(N[C@H]3CC[C@@H](Oc4cc(N5CCOCC5)cc5nccnc45)CC3)n1)CCN2` [Compound 371], for which the Ki is below 100 nM.

On to `c1cnc2c(O[C@H]3CC[C@@H](Nc4ncc(C5CCNC5)cn4)CC3)cc(N3CCOCC3)cc2n1` (stereo partly shown) [Compound 569], for which the Ki is below 100 nM.

Turning to `CCOc1ccc(N[C@H]2CC[C@@H](Oc3cc(N4CCOCC4)cc4nccnc34)CC2)nc1` [Compound 658], the Ki is below 100 nM.

With `Cc1cncc(N[C@H]2CC[C@@H](Oc3cc(N4CCOCC4)cc4nccnc34)CC2)n1` [Compound 373], the Ki was below 100 nM.

For `[2H]C([2H])([2H])c1nccc(N[C@H]2CC[C@@H](Oc3cc(N4CCOCC4)cc4nccnc34)CC2)n1` [Compound 478], the Ki is below 100 nM.

On to `COc1nc(N[C@H]2CC[C@@H](Oc3cc(N4CCOCC4)cc4nccnc34)CC2)c2cc[nH]c2n1` [Compound 383], for which the Ki is below 100 nM.

Consider `CC(C)(C)OC(=O)N1CCC(c2cnc(N[C@H]3CC[C@@H](Oc4cc(N5CCOCC5)cc5nccnc45)CC3)nc2)C1` (stereo partly shown) [Compound 570], for which the Ki was below 100 nM.

With `OCCc1cnc(N[C@H]2CC[C@@H](Oc3cc(N4CCOCC4)cc4nccnc34)CC2)nc1` [Compound 481], the Ki is below 100 nM.

For `c1cnc2c(O[C@H]3CC[C@@H](Nc4ncc(OCCN5CCCC5)cn4)CC3)cc(N3CCOCC3)cc2n1` [Compound 509], the inhibition constant (Ki) was below 100 nM.

For the compound `N#Cc1cncnc1N[C@H]1CC[C@@H](Oc2cc(N3CCOCC3)cc3nccnc23)CC1` [Compound 422], the Ki was below 100 nM.

For the compound `Fc1c[nH]c2ncnc(N[C@H]3CC[C@@H](Oc4cc(N5CCOCC5)cc5nccnc45)CC3)c12` [Compound 437], the Ki is below 100 nM.

As to `Cc1nccc(N[C@H]2CC[C@@H](Oc3cc(C4=CCOC4)cc4nccnc34)CC2)n1` [Compound 289], the Ki is below 100 nM.

For `Fc1nc(N[C@H]2CC[C@@H](Oc3cc(N4CCOCC4)cc4nccnc34)CC2)c2nc[nH]c2n1` [Compound 521], the inhibition constant Ki is below 100 nM.

On to `OCCN1CCN(c2cc(N[C@H]3CC[C@@H](Oc4cc(N5CCOCC5)cc5nccnc45)CC3)ncn2)CC1` [Compound 499], for which the Ki is below 100 nM.

Regarding `c1nc(CN2CCCCC2)cc(N[C@H]2CC[C@@H](Oc3cc(N4CCOCC4)cc4nccnc34)CC2)n1` [Compound 389], the inhibitory constant (Ki) was below 100 nM.

In the case of `Cc1cc(N[C@H]2CC[C@@H](Oc3cc(N4CCOCC4)cc4nccnc34)CC2)n2ncnc2n1` [Compound 536], the Ki was below 100 nM.

Turning to `Cc1nccc(N(C)[C@H]2CC[C@@H](Oc3cc(N4CCOCC4)cc4nccnc34)CC2)n1` [Compound 399], the Ki was below 100 nM.

In the case of `c1ncc(N[C@H]2CC[C@@H](Oc3cc(N4CCOCC4)cc4nccnc34)CC2)cn1` [Compound 575], the Ki was below 100 nM.

For `Cc1nnc2c(N[C@H]3CC[C@@H](Oc4cc(N5CCOCC5)cc5nccnc45)CC3)nccn12` [Compound 310], the Ki is below 100 nM.

With `CCc1nccc(N[C@H]2CC[C@@H](Oc3cc(N4CCOCC4)cc4nccnc34)CC2)n1` [Compound 439], the inhibitory constant (Ki) was below 100 nM.

As to `Clc1cnc(N[C@H]2CC[C@@H](Oc3cc(N4CCOCC4)cc4nccnc34)CC2)nc1` [Compound 485], the Ki was below 100 nM.

For `CN1CCC(c2cnc(N(C)[C@H]3CC[C@@H](Oc4cc(N5CCOCC5)cc5nccnc45)CC3)nc2)CC1` [Compound 657], the Ki was below 100 nM.

Take `O=C(O)c1cccc(N[C@H]2CC[C@@H](Oc3cc(N4CCOCC4)cc4nccnc34)CC2)n1` [Compound 419]: the Ki was below 100 nM.

Turning to `c1cnc(O[C@H]2CC[C@H](Oc3cc(N4CCOCC4)cc4nccnc34)CC2)nc1` [Compound 34, 4-(8-(((trans)-4-(pyrimidin-2-yloxy)cyclohexyl)oxy)quinoxalin-6-yl)morpholine], the Ki is below 100 nM.

With `Oc1nccc(N[C@H]2CC[C@@H](Oc3cc(N4CCOCC4)cc4nccnc34)CC2)n1` [Compound 280], the Ki is below 100 nM.

`COc1cc(N[C@H]2CC[C@@H](Oc3cc(N4CCOCC4)cc4nccnc34)CC2)ccn1` [Compound 440]: the Ki was below 100 nM.

For the compound `Cc1cnc2cc(N3CCOCC3)cc(O[C@H]3CC[C@@H](Nc4ncc(C5CCN(C)CC5)cn4)CC3)c2n1` [Compound 544], the Ki was below 100 nM.

Consider `c1cc(N[C@H]2CC[C@@H](Oc3cc(N4CCOCC4)cc4nccnc34)CC2)n2nccc2c1` [Compound 580], for which the Ki was below 100 nM.

Take `c1cc(N[C@H]2CC[C@@H](Oc3cc(N4CCOCC4)cc4nccnc34)CC2)cnn1` [Compound 354]: the Ki was below 100 nM.

As for `c1cnc2c(O[C@H]3CC[C@@H](Nc4ncc(CCN5CCCCC5)cn4)CC3)cc(N3CCOCC3)cc2n1` [Compound 433], the Ki is below 100 nM.

For `Fc1c(NC2CCOCC2)ncnc1N[C@H]1CC[C@@H](Oc2cc(N3CCOCC3)cc3nccnc23)CC1` [Compound 378], the inhibition constant Ki is below 100 nM.

Take `c1cnc(NC[C@H]2CC[C@@H](Oc3cc(N4CCOCC4)cc4nccnc34)CC2)nc1` [Compound 348]: the Ki is below 100 nM.

`Cn1ncc2c(N[C@H]3CC[C@@H](Oc4cc(N5CCOCC5)cc5nccnc45)CC3)ncnc21` [Compound 545]: the Ki is below 100 nM.

`c1cc(CN2CCCCC2)nc(N[C@H]2CC[C@@H](Oc3cc(N4CCOCC4)cc4nccnc34)CC2)n1` [Compound 504]: the Ki was below 100 nM.

On to `COc1c(N[C@H]2CC[C@@H](Oc3cc(N4CCOCC4)cc4nccnc34)CC2)ncnc1N(C)C` [Compound 388], for which the inhibition constant Ki is below 100 nM.

In the case of `Clc1ccnc(N[C@H]2CC[C@@H](Oc3cc(N4CCOCC4)cc4nccnc34)CC2)n1` [Compound 532], the Ki was below 100 nM.
